Tests used:
LNCaP cells = assay: Apoptosis by morphology (acridine orange/ethidium bromide fluorescent staining); format: cell-based, human; conditions: 24 hr
Procedure: (§1) Apoptosis Assays. Drug treated LNCaP cells were examined for apoptotic morphology using a fluorescence staining technique as described previously (Qi and Martinez, 2003). Briefly, cells were exposed to DMSO or 1 to 5 μM of NSC348884 for 24 hr and were harvested by trypsinization. After staining with a mixed dye solution containing […] each of acridine orange and ethidium bromide the morphology of the cells were observed by fluorescence microscopy, and the number of apoptotic cells was quantified. Studies were performed in triplicate and mean+SD calculated. In all cases a minimum of 200 cells were counted for each sample. Using Annexin V staining to detect apoptosis, treated MCF-7, PC-3, DU145 and Granta (−519, −4, −22) cells were harvested by trypsinization and rinsed with cold PBS once. After centrifugation for 5 min, cancer cells were resuspended in 500 μl of 1 Annexin V binding buffer (BioVision, Annexin V-FITC Reagent Kit, Cat. #1001-1000) and then added 1 μl of Annexin V-FITC and 1 μl of Propidium Iodide (BioVision, Annexin VFITC Reagent Kit). After incubation for 5 min at room temperature in the dark, the samples were analyzed by flow cytometry.

LNCaP prostate cell line = assay: MTT cell viability assay, LNCaP; format: cell-based; conditions: Homo sapiens, 96 h, 4 days
Procedure: NPM plays an essential role in cellular activities such as ribosome biogenesis, cell proliferation, apoptosis and centrosome duplication. Therefore, inhibition of NPM should affect cell growth. To determine the effect of NPM inhibitor NSC348884 on cancer cell proliferation, cell viability assays were conducted on LNCaP and Granta (human mantle cell lymphoma) cells (Granta-519, -4, -22) with varying concentrations of NSC348884 over 4 days. […] The difference in IC50 is attributed to the differential proliferative capacity of the two types of cancer cell lines. Since Rev peptide binds to NPM and potentates the doxorubicin-induced decrease of cellular viability and inhibition of tumor growth in nude mice (Chan et al., 2005), we evaluated if NSC348884 would be additive or synergistic with doxorubicin, a therapy commonly used in this disease. An IC50 of 0.01-0.02 μM for doxorubicin was established for all 3 Granta cell lines, while at 0.1 nM doxorubicin had no effect on cell viability
Cells and Reagents. […]
Cell Viability Assays. […] The media and MTT dye were aspirated, and 100 μL dimethyl sulfoxide (DMSO) was added to each well, absorbance was read at 540 nm on a plate reader (Wallac Vector, PerkinElmer). Data was expressed as the percent survival of control calculated from the absorbance, corrected for background.

[1] = system: HCT116 colon cancer cells; assay: SCID mouse HCT116 colon cancer xenograft; format: in vivo, SCID mice; conditions: for survival: i.p. for 4 weeks, NSC348884 1.5 mg/kg Mon/Wed/Fri, doxorubicin 20 ug/kg Mon
Procedure: SCID mice were inoculated with 10×10^6 HCT116 colon cancer cells in their flanks to form measurable tumors in the range 60-100 mm^3. Mice were pair matched with 12 mice per arm. NSC348884 was administered (Monday, Wednesday, Friday), Doxorubicin (Monday), combination or vehicle by intra-peritoneal injection each for 4 weeks. Measurements of tumor growth were performed twice a week and tumor volume estimated according to the formula: [(width)^2×length]/2. Mice were weighed before the beginning of the experiment and twice a week thereafter to check for signs of toxicity. Control mice (upper panel, first bar) were treated with vehicle (DMSO), NSC348884 at 1.5 mg/kg NSC348884 (upper panel, second bar), very low dose doxorubicin at 20 ug/kg (upper panel, third bar), and the combination of NSC348884/doxorubicin (upper panel, fourth bar).

14-3-3 dimer = 14-3-3 dimer formation control, native PAGE; format: cell-based, human; conditions: LNCaP and HCT116 cells, 5 and 6 μM, 24 hr
Procedure: (§2) To examine whether NSC348884 specifically interacts with NPM and disrupts its oligomer formation, LNCaP and HCT116 cells with wild type NPM (no translocations) were treated with varying concentrations of NSC348884 (0, 5, 6 μM) for 24 hr, lyzed under non-denaturing conditions and analyzed by native PAGE which is an excellent tool for detecting oligomers and aggregates since the protein retains its folded conformation. We utilized 14-3-3 which forms dimers as a control. […] The two bands shown in HCT116 represent different isoforms of 14-3-3 proteins. Taken together, NSC348884 is able to bind to NPM and interfere with oligomer formation of NPM specifically.
(§3) Immunoblotting. LNCaP or HCT116 cells were lysed in NP-40 lysis buffer containing 50 mM Tris-Cl (pH 7.4), 0.15 M NaCl, 0.5% NP-40, 1 mM DTT, 50 mM sodium fluoride and 2 μl/ml of a protease inhibitor cocktail (Sigma, St. Louis, Mo.). Protein concentrations were-determined using the Bio-Rad protein assay kit (Hercules, Calif.) and 50 μg of protein was resolved by electrophoresis on a 10% SDS-PAGE. […] The membrane was subjected to the indicated antibodies and the proteins were detected by the SuperSignal West Pico detection system (Pierce, Rockford, Ill.). […]

[2] = system: MCF7, PC-3, DU145 and Granta cells; assay: Annexin V staining and flow cytometry; format: cell-based, human; conditions: several different cancer cell lines, 24 h
Procedure: Furthermore, apoptosis induced by NSC348884 was confirmed by Annexin V staining and flow cytometry (FACS) analysis.
as §1

LNCaP = assay: Apoptosis markers by immunoblotting (PARP cleavage, H2AX phosphorylation); format: cell-based, human; conditions: 4 and 5 μM
Procedure: Immunoblotting. LNCaP or HCT116 cells were lysed in NP-40 lysis buffer containing 50 mM Tris-Cl (pH 7.4), 0.15 M NaCl, 0.5% NP-40, 1 mM DTT, 50 mM sodium fluoride and 2 μl/ml of a protease inhibitor cocktail (Sigma, St. Louis, Mo.). Protein concentrations were-determined using the Bio-Rad protein assay kit (Hercules, Calif.) and 50 μg of protein was resolved by electrophoresis on a 10% SDS-PAGE. The proteins were then transferred onto a nitrocellulose membrane and nonspecific binds were blocked by incubating with 5% nonfat milk in TBST buffer (0.01 M Tris-Cl, pH 8.0, 0.15 M NaCl, 0.5% Tween-20) at room temperature for 1 hr. The membrane was subjected to the indicated antibodies and the proteins were detected by the SuperSignal West Pico detection system (Pierce, Rockford, Ill.). For native PAGE gel experiment, the samples were not denatured by heating and the electrophoresis was run in the absence of SDS.

p53 [3] = assay: p53 immunocytochemistry; format: cell-based, human; conditions: LNCaP and A549, 5 μM, 6 h, versus vehicle
Text: Mounting evidences indicate that NPM negatively regulates tumor suppressor p53 through interaction with p53 directly to prevent its phosphorylation on Ser15 (Maiguel et al., 2004) or through binding with p14ARF to impair the ARF-Hdm2 association and increase Hdm2/p53 complex formation (Gjerset, 2006). NPM knockdown by small interfering RNA enhances p53 phosphorylation and transcriptional activity. Therefore, inhibition of NPM by NSC348884 could affect p53 status. To address this, LNCaP cells were untreated and treated with different dosage of NSC348884 for 2 h to 24 h, and the changes in p53 protein and phosphorylation levels were determined by Western blot. Indeed, NSC348884 increased both p53 protein level and phosphorylation on Ser15 in a dose-dependent manner after 2 h of incubation (FIG. 5A).
Immunocytochemistry. LNCaP, A549 or HCT116 cells grown on cover slips were treated with DMSO or 5 μM of NSC348884 for 6 hr and then fixed in cold methanol:acetone (3:7) for 5 minutes. The cover slips were washed twice with cold PBS and blocked with blocking buffer (1% BSA, 0.01% saponin and 1% normal mouse serum in PBS) for 1 hr at room temperature. The cover slips were then immunostained using anti-p53 antibody at the dilution 1:100 in blocking buffer overnight at 4° C. […]

[4] = system: distinct cancer cell lines; assay: Inhibition of cell proliferation, summary; format: cell-based; conditions: Homo sapiens
Procedure: Cell Viability Assays. LNCaP, Granta-4, Granta-22 and Granta-519 cell lines were seeded into 96-well tissue culture plates with 50,000 cells per well, cultured for 24 hours and exposed to NSC348884, doxorubicin or combination for four days. All studies were performed in triplicate and were repeated 3 different times. After incubation, 20 μL of 2 mg/m L 3-(4,5-dimethylthiazol-2-yl)-2,5-diphenyltetrazolium bromide (MTT) were added to each well and incubated an additional four hours. The media and MTT dye were aspirated, and 100 μL dimethyl sulfoxide (DMSO) was added to each well, absorbance was read at 540 nm on a plate reader (Wallac Vector, PerkinElmer). Data was expressed as the percent survival of control calculated from the absorbance, corrected for background.

[5] = system: Granta (-4, -22 and -519) mantle cell lymphoma cell lines; assay: MTT cell viability assay, Granta; format: cell-based, human; conditions: for IC50: Homo sapiens, 96 h, Granta-4, -22, -519, MTT
Procedure: Cells and Reagents. Human cancer cell lines used herein include prostate (LNCaP, PC3, DU145), colon (HCT116), lung (A549), breast (MCF7) purchased from American Type Culture Collection (Rockville, Md.) and mantle cell lymphoma (Granta-4, -22 and -519) were maintained in RPMI 1640 medium (Mediatech, Va.) supplemented with 10% fetal bovine serum, 2 mM sodium pyruvate and 100 units/ml penicillin/streptomycin at 37° C. in a humidified atmosphere of 5% CO2.

NPM oligomer = target: T1, NPM oligomer (Homo sapiens, UniProt P06748); assay: NPM oligomer formation by native PAGE / immunoblotting; format: cell-based; conditions: LNCaP and HCT116 cells, 5 and 6 μM, 24 hr
T1 construct: endogenous in cells; host or cells: LNCaP and HCT116
T1 sequence (P06748 whole entry): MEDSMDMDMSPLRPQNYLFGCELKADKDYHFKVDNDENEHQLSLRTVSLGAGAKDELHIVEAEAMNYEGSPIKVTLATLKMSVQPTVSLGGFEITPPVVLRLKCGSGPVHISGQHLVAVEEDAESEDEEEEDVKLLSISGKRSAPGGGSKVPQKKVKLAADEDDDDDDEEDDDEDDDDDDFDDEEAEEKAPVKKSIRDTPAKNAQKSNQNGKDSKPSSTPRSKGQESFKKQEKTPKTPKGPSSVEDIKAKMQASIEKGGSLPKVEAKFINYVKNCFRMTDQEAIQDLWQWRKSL
Procedure: as §2, §3

p53 [6] = assay: p53 / p21 Western blotting; format: cell-based, human

SMILES | apoptosis by morphology, dose dependence (LNCaP cells; 0-5 μM) | apoptosis by morphology (LNCaP cells; 4 and 5 μM) [%] | IC50 (LNCaP prostate cell line) [nM] | survival [1] [days] | survival advantage ([1]; versus control) | 14-3-3 dimer formation (14-3-3 dimer) | apoptosis by Annexin V binding [2] | PARP-cleavage and H2AX phosphorylation on Ser139 (LNCaP) | p53 by immunocytochemistry staining (p53 [3]) | IC50 [4] [nM] | IC50 ([5]; 4 days) [nM] | effect on cell viability ([5]; NSC348884 at 1 μM alone, 4 days, MTT) | NPM oligomer formation (NPM oligomer) | p21 protein level (p53 [6]; HCT116, 5 μM, 24 h) | p53 protein level and phosphorylation on Ser15 (p53 [6]; LNCaP, after 2 h of incubation) | p53 level (p53 [6]; breast cancer cell line MCF7) | effect on cell viability ([5]; doxorubicin at 0.1 nM alone)
Cc1ccc2nc(CN(CCN(Cc3nc4ccc(C)cc4[nH]3)Cc3nc4ccc(C)cc4[nH]3)Cc3nc4ccc(C)cc4[nH]3)[nH]c2c1 [NSC348884, N,N,N′,N′-tetrakis[(5-methyl-2-benzimidazolyl)methyl]-1,2-ethanediamine] | dose-dependent increase in apoptosis | > 50 | ~4000 | 53 | statistically significant survival advantage | no effect | induced apoptosis | correlated well with PARP-cleavage and induction H2AX phosphorylation | higher p53 proteins were induced | 1700 to 4000 | ~1700 | no effect | disrupted | up-regulated | increased | enhanced p53 | 
COc1cccc2c1C(=O)c1c(O)c3c(c(O)c1C2=O)C[C@@](O)(C(=O)CO)C[C@@H]3O[C@H]1C[C@H](N)[C@H](O)[C@H](C)O1 [doxorubicin, reference compound] |  |  |  | 41 |  |  |  |  |  |  | 10 to 20 |  |  |  |  |  | no effect

Reference: US8063089B2, “Inhibitors of nucleophosmin (NPM) and methods for inducing apoptosis” (Arizona Board of Regents on Behalf of the University of …, priority 2007, dated 2011)
